Experimental data published in the supplement of paper PMC11208160.

Assay: recombinant barcode read abundance after kanamycin selection (control-corrected) (log10(CPM+1)); higher = more efficient recombination; sequences stand for … in AGTGCAGAGAAAATCGGCCAGTTTTCTCTGCCTGCAGTCCGCATGCCGT…AGATTTATGCAGCGGACTGCCTTTCTCCCAAAGTGATAAACCGGACAGTATCATGGACCGGTTTTCCCGGTAATCCGTATTTGCAAGGTTGGTTTCACT; site = the 11-nt target
Outline: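 A promoter, a target, a barcode and the first 104 bridge RNA bases under J23119 made up each oligo. Oligos were Gibson-cloned into a vector bearing the other 73 bp and a T7-inducible recombinase, then co-electroporated into E. coli with a donor plasmid and plated in duplicate on chloramphenicol/ampicillin LB agar (control) or chloramphenicol/ampicillin/kanamycin with 0.1 mM IPTG. Recombination efficiency is the averaged, control-corrected counts per million of recombinant-junction barcodes. Reported values are log10(CPM+1).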
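Also: IS621 recombinase and bridge RNA in Escherichia coli cells.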

Sequence	recombinant barcode read abundance (log10)
GGTAACCCTTGGGTTCTAACCTGTTGCGG (site GGTGACCCTCC)	0.106
GGTAACCCTTGGGTTCTAACCTGTTGCGG (site GGTTACCCTCC)	0.425
GGTAAGACTTGGGTTCTAACCTGTTGCGG (site GCTAAGACTCA)	0.0264
GGTAAGACTTGGGTTCTAACCTGTTGCGG (site GGTAAGACTCC)	1.64
GGTACTCCTTGGGTTCTAACCTGTTGCGT (site GGTACGCCTAC)	0.18
GGTACTCCTTGGGTTCTAACCTGTTGCGT (site GGTACTCCTAC)	0.913
GGTAGGACTTGGGTTCTAACCTGTTGCGG (site AGTAGGCCTCC)	0.0127
GGTAGGACTTGGGTTCTAACCTGTTGCGG (site GGTAGGACTCC)	2
GGTATAACTTGGGTTCTAACCTGTTGCCA (site ACACCCTCTCT)	0.124
GGTATAACTTGGGTTCTAACCTGTTGCCA (site GGTATAACTTG)	0.132
GGTCCCGCTTGGGTTCTAACCTGTTGCCA (site GGGCCCGCTTA)	0.485
GGTCCCGCTTGGGTTCTAACCTGTTGCCA (site GGTCCCGCTTG)	1.77
GGTCGAGCTTGGGTTCTAACCTGTTGCCT (site GGTCGAGCTAG)	1.13
GGTCGAGCTTGGGTTCTAACCTGTTGCCT (site GGTCGCGCTAG)	0.0193
GGTCGAGCTTGGGTTCTAACCTGTTGCCT (site GGTCGGGCTAG)	0.146
GGTCGAGCTTGGGTTCTAACCTGTTGCCT (site GGTCGTGCTAG)	0.671
GGTCGTGCTTGGGTTCTAACCTGTTGCCT (site GGTCGAGCTAG)	0.304
GGTCGTGCTTGGGTTCTAACCTGTTGCCT (site GGTCGCGCTAG)	0
GGTCGTGCTTGGGTTCTAACCTGTTGCCT (site GGTCGGGCTAG)	0.106
GGTCGTGCTTGGGTTCTAACCTGTTGCCT (site GGTCGTGCTAG)	1.14
GGTCTAACTTGGGTTCTAACCTGTTGCCT (site GGTCAAACTAG)	0.0448
GGTCTAACTTGGGTTCTAACCTGTTGCCT (site GGTCCAACTAG)	0.631

Sequence	recombinant barcode read abundance (log10)
GGTCTAACTTGGGTTCTAACCTGTTGCCT (site GGTCGAACTAG)	0.128
GGTCTAACTTGGGTTCTAACCTGTTGCCT (site GGTCTAACTAG)	0.649
GGTCTGCCTTGGGTTCTAACCTGTTGCCT (site AGTCTGCCTAG)	0.171
GGTCTGCCTTGGGTTCTAACCTGTTGCCT (site CGTCTGCCTAG)	0.252
GGTCTGCCTTGGGTTCTAACCTGTTGCCT (site GGTCTGCCTAG)	0.375
GGTCTGCCTTGGGTTCTAACCTGTTGCCT (site TGTCTGCCTAG)	0.397
GGTGAGACTTGGGTTCTAACCTGTTGCCA (site AGTGGGACTTG)	0.235
GGTGAGACTTGGGTTCTAACCTGTTGCCA (site GGTGAGACTTG)	2.14
GGTGAGGCTTGGGTTCTAACCTGTTGCAT (site GGTGAGGCTAT)	2.31
GGTGAGGCTTGGGTTCTAACCTGTTGCAT (site TAACCTACTTA)	0.214
GGTGCATCTTGGGTTCTAACCTGTTGCTT (site ATATGTCCTTT)	0.0325
GGTGCATCTTGGGTTCTAACCTGTTGCTT (site GGTGCATCTAA)	0.0847
GGTGCGTCTTGGGTTCTAACCTGTTGCCT (site AGTGCGTCTAG)	0.246
GGTGCGTCTTGGGTTCTAACCTGTTGCCT (site CGTGCGTCTAG)	0.132
GGTGCGTCTTGGGTTCTAACCTGTTGCCT (site GGTGCGTCTAG)	1.57
GGTGCGTCTTGGGTTCTAACCTGTTGCCT (site TGTGCGTCTAG)	0.119
GGTGCTCCTTGGGTTCTAACCTGTTGCAC (site GGTGCTCCTAT)	0.085
GGTGCTCCTTGGGTTCTAACCTGTTGCAC (site GGTGCTCCTCT)	0.04
GGTGCTCCTTGGGTTCTAACCTGTTGCAC (site GGTGCTCCTGT)	0.684
GGTGCTCCTTGGGTTCTAACCTGTTGCAC (site GGTGCTCCTTT)	0.216
GGTGGCCCTTGGGTTCTAACCTGTTGCCT (site GATGGCCCTAG)	0.108
GGTGGCCCTTGGGTTCTAACCTGTTGCCT (site GCTGGCCCTAG)	0.22

Sequence	recombinant barcode read abundance (log10)
GGTGGCCCTTGGGTTCTAACCTGTTGCCT (site GGTGGCCCTAG)	1.08
GGTGGCCCTTGGGTTCTAACCTGTTGCCT (site GTTGGCCCTAG)	0.296
GGTGGGGCTTGGGTTCTAACCTGTTGCTG (site GGTGGGGCTCA)	2.24
GGTGGGGCTTGGGTTCTAACCTGTTGCTG (site GGTTGAGCTCA)	0.536
GGTGGTCCTTGGGTTCTAACCTGTTGCCT (site GGTGGTCCTAG)	1.36
GGTGGTCCTTGGGTTCTAACCTGTTGCCT (site GGTTGTCCTAG)	0.178
GGTTACCCTTGGGTTCTAACCTGTTGCGG (site GGTAACCCTCC)	0.716
GGTTACCCTTGGGTTCTAACCTGTTGCGG (site GGTCACCCTCC)	1.62
GGTTACCCTTGGGTTCTAACCTGTTGCGG (site GGTGACCCTCC)	0.115
GGTTACCCTTGGGTTCTAACCTGTTGCGG (site GGTTACCCTCC)	2.08
GGTTAGTCTTGGGTTCTAACCTGTTGCCG (site ACGGCTACTAA)	0.147
GGTTAGTCTTGGGTTCTAACCTGTTGCCG (site GGTTAGTCTCG)	0.363
GGTTGAGCTTGGGTTCTAACCTGTTGCTG (site GGTGGGGCTCA)	0.0323
GGTTGAGCTTGGGTTCTAACCTGTTGCTG (site GGTTGAGCTCA)	0.642
GGTTGGCCTTGGGTTCTAACCTGTTGCGG (site GGTTGACCTCC)	0.257
GGTTGGCCTTGGGTTCTAACCTGTTGCGG (site GGTTGCCCTCC)	0.0622
GGTTGGCCTTGGGTTCTAACCTGTTGCGG (site GGTTGGCCTCC)	0.624
GGTTGGCCTTGGGTTCTAACCTGTTGCGG (site GGTTGTCCTCC)	0.15
GGTTGGGCTTGGGTTCTAACCTGTTGCAG (site GGCTGGGCTCG)	0.0851
GGTTGGGCTTGGGTTCTAACCTGTTGCAG (site GGTTGGGCTCT)	1.46
GTAACCTCTTGGGTTCTAACCTGTTGCCT (site GTAACCTCTAG)	1.92
GTAACCTCTTGGGTTCTAACCTGTTGCCT (site GTAACCTCTCG)	1.15

Sequence	recombinant barcode read abundance (log10)
GTAACCTCTTGGGTTCTAACCTGTTGCCT (site GTAACCTCTGG)	0.0952
GTAACCTCTTGGGTTCTAACCTGTTGCCT (site GTAACCTCTTG)	0.0654
GTAAGAACTTGGGTTCTAACCTGTTGCAG (site GTAAGAACTCT)	1.78
GTAAGAACTTGGGTTCTAACCTGTTGCAG (site GTAAGTCCTCT)	0.544
GTAAGGACTTGGGTTCTAACCTGTTGCGG (site CAGTCAGCTAG)	0.115
GTAAGGACTTGGGTTCTAACCTGTTGCGG (site GTAAGGACTCC)	2.25
GTAAGTTCTTGGGTTCTAACCTGTTGCCT (site GAAAGTTCTAG)	0.049
GTAAGTTCTTGGGTTCTAACCTGTTGCCT (site GCAAGTTCTAG)	0.258
GTAAGTTCTTGGGTTCTAACCTGTTGCCT (site GGAAGTTCTAG)	0.0929
GTAAGTTCTTGGGTTCTAACCTGTTGCCT (site GTAAGTTCTAG)	1.11
GTAATAGCTTGGGTTCTAACCTGTTGCAT (site ATAATAGCTAT)	0.695
GTAATAGCTTGGGTTCTAACCTGTTGCAT (site GTAATAGCTAT)	2
GTAATCCCTTGGGTTCTAACCTGTTGCCG (site GTAATCCCTCG)	1.76
GTAATCCCTTGGGTTCTAACCTGTTGCCG (site GTAATCCCTTG)	0.572
GTAATTGCTTGGGTTCTAACCTGTTGCCT (site GTAAATGCTAG)	0.184
GTAATTGCTTGGGTTCTAACCTGTTGCCT (site GTAACTGCTAG)	0.519
GTAATTGCTTGGGTTCTAACCTGTTGCCT (site GTAAGTGCTAG)	0.0962
GTAATTGCTTGGGTTCTAACCTGTTGCCT (site GTAATTGCTAG)	0.918
GTACAATCTTGGGTTCTAACCTGTTGCAG (site CATAGTCCTTG)	0
GTACAATCTTGGGTTCTAACCTGTTGCAG (site GTACAATCTCT)	0.632
